Measurements from publication PMC3150619 (Journal of medicinal chemistry, 2011).

Columns and labels:
PARG [1] = biological target: T1, PARG (Bos taurus, UniProt O02776); test: PARG assay; type: biochemical; conditions: SAR discussion in text
[2] = tested on: PARP activity in SCC-25 cells; test: NAD assay: NAD; type: cell-based; conditions: pretreated with 1mM compound, MNNG 5μg/mL for 30 minutes (Figure 2C)
PARG [3] = biological target: T1, PARG; conditions: previous study; cited from earlier work
PARP-1 = PARP-1 (Homo sapiens, UniProt P09874); conditions: previous study; cited from earlier work
[4] = tested on: PARG activity in SCC-25 cells; test: PAR assay: PAR formation/turnover in SCC-25 cells after MNNG; type: cell-based

T1 sequence (O02776 385-977): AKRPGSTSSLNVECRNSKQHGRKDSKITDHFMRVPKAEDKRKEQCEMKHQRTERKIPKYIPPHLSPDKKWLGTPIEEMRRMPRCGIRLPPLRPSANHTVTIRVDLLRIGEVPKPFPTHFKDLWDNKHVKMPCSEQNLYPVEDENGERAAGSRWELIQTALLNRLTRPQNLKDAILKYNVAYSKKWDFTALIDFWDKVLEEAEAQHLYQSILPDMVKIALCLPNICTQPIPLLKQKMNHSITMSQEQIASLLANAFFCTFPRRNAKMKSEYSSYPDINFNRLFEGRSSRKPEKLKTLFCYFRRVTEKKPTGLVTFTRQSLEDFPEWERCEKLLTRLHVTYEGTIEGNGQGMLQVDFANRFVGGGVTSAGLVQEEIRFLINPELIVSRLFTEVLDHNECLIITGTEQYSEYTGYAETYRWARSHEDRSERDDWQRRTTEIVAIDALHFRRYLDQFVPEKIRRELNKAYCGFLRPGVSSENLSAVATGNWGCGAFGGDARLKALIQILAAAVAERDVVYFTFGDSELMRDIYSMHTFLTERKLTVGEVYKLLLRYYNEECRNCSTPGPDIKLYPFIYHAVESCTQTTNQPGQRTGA
PARP-1, sequence (P09874 whole entry): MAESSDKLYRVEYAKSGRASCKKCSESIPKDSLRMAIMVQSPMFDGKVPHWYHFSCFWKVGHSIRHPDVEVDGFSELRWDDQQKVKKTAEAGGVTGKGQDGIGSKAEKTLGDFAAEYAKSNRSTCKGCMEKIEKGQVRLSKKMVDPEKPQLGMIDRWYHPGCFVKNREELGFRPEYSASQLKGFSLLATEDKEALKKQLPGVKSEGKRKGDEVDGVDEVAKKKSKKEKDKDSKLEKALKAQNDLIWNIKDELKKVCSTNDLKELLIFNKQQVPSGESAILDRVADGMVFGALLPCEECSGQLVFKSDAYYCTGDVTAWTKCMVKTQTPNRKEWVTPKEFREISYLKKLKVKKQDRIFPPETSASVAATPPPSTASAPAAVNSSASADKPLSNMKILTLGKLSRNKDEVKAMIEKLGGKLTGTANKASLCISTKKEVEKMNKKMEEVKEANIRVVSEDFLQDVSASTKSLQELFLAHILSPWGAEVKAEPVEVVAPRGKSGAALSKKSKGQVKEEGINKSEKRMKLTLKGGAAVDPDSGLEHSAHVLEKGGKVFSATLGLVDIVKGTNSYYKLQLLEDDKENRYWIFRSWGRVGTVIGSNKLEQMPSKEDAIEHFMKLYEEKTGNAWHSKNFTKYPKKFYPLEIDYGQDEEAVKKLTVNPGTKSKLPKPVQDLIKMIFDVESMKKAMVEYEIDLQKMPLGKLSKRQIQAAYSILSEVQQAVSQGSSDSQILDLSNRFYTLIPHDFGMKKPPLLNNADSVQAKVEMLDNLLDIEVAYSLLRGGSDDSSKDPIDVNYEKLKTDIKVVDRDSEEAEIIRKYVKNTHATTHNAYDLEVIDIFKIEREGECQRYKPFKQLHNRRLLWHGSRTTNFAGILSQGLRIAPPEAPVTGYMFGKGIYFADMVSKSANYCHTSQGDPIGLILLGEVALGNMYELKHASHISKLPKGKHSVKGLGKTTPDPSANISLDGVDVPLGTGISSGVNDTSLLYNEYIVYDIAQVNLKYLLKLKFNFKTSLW

| PARG inhibition (in words) (PARG [1]) | Compound | inhibition of NAD(H) depletion (in words) [2] | other results |
| --- | --- | --- | --- |
| complete loss of PARG inhibition | O=C(Nc1ccc(O)c(Cl)c1)c1cc(Cl)cc(Cl)c1O [Compound 8a, 3,5-dichloro-N-(3-chloro-4-hydroxyphenyl)-2-hydroxybenzamide] | – | – |
| loss of PARG inhibition | Oc1c(Cl)cc(Cl)cc1CNc1ccc(Oc2ccc3ccccc3c2)c(Cl)c1 [Compound 10, 2,4-dichloro-6-((3-chloro-4-(naphthalen-2-yloxy)phenylamino)methyl)phenol] | – | – |
| – | NC(=O)c1ccccc1 [Benzamide, benzamide, reference compound] | complete inhibition of NAD(H) depletion | inhibition of PARG (in words) (PARG [3]): does not inhibit PARG |
| – | Nc1ncnc2c1ncn2[C@@H]1O[C@H](COP(=O)(O)OP(=O)(O)OC[C@H]2NC[C@H](O)[C@@H]2O)[C@@H](O)[C@H]1O [ADP-HPD, adenosine 5′-diphosphate (hydroxymethyl) pyrrolidinediol] | – | inhibition of PARP-1 (in words) (PARP-1): does not inhibit PARP-1 |
| loss of PARG inhibition | Oc1c(Cl)cc(Cl)cc1/C=N/c1ccc(Oc2ccc3ccccc3c2)c(Cl)c1 [Compound 9, 2,4-dichloro-6-((3-chloro-4-(naphthalen-2-yloxy)phenylimino)methyl)phenol] | – | – |
| – | O=C(Nc1ccc(Oc2ccc3ccccc3c2)c(Cl)c1)c1cc(Cl)cc(Cl)c1O [Compound 6a, 3,5-dichloro-N-(3-chloro-4-(naphthalen-2-yloxy)phenyl)-2-hydroxybenzamide] | partial inhibition of NAD(H) consumption | increase of PAR accumulation at 10 min ([4]; SCC-25 cells pre-incubated with 1mM compound, MNNG 5μg/mL (Figure 3B)): approximately 3 fold; inhibition of PARG in intact cells (in words) ([4]; SCC-25 cells, 1mM compound, MNNG 5μg/mL): nearly complete inhibition of PARG |
| PARG inhibition was retained | O=C(O)c1ccccc1C(=O)Nc1ccc(Oc2ccc3ccccc3c2)c(Cl)c1 [Compound 6g, 2-(3-chloro-4-(naphthalen-2-yloxy)phenylcarbamoyl)benzoic acid] | – | – |
| loss of detectable inhibition of PARG | O=C(Nc1ccc(Oc2ccc3ccccc3c2)c(Cl)c1)c1cc(Cl)cc(Cl)c1 [Compound 6b, 3,5-dichloro-N-(3-chloro-4-(naphthalen-2-yloxy)phenyl)benzamide] | minimal effect | – |
| loss of detectable PARG inhibition | COc1c(Cl)cc(Cl)cc1C(=O)Nc1ccc(Oc2ccc3ccccc3c2)c(Cl)c1 [Compound 6f, 3,5-dichloro-N-(3-chloro-4-(naphthalen-2-yloxy)phenyl)-2-methoxybenzamide] | – | – |
| not enough to detect PARG inhibition | O=C(Nc1ccccc1)c1cc(Cl)cc(Cl)c1O [Compound 8h, 3,5-dichloro-2-hydroxy-N-benzamide] | – | – |
| loss of detectable PARG inhibition | NC(=O)c1cc(Cl)cc(Cl)c1O [Compound 7, 3,5-dichloro-2-hydroxybenzamide] | minimal effect | – |

| Compound | PARG inhibition (in words) (PARG [1]) | inhibition of NAD(H) depletion (in words) [2] | other results |
| --- | --- | --- | --- |
| O=C(Nc1ccccc1Cl)c1cc(Cl)cc(Cl)c1O [Compound 8b, 3,5-dichloro-N-(2-chlorophenyl)-2-hydroxybenzamide] | slight loss of potency | – | – |
| O=C(Nc1cccc(Cl)c1)c1cc(Cl)cc(Cl)c1O [Compound 8c, 3,5-dichloro-N-(3-chlorophenyl)-2-hydroxybenzamide] | PARG inhibition returned although at low potency | – | – |
| O=C(Nc1ccc(Cl)cc1)c1cc(Cl)cc(Cl)c1O [Compound 8d, 3,5-dichloro-N-(4-chlorophenyl)-2-hydroxybenzamide] | slight loss of potency | partial inhibition of NAD(H) consumption | – |
